Source: PubChem BioAssay AID248 (DTP/NCI, 2004)
Toxic doses and inconclusive results are not listed. Cut-off read from the data, not from the text of the source: active = T/C of 150% or more; inactive = T/C below 125%.

Tested on: L1210 leukemia ip in BDF1 mice, survival T/C
Test: NCI In Vivo Anticancer Drug Screen. Data for tumor model L1210 Leukemia (intraperitoneal) in B6D2F1 (BDF1) mice
Conditions: endpoint: mean survival time, higher = longer survival
Procedure, shortened: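 Antitumor effect is assessed in tumor-bearing animals. Survival in the compound arm is compared with a vehicle-dosed control arm and expressed as their quotient.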

[1] = dose: 100.0 mg/kg/injection, schedule: Q04DX003 (ip), vehicle: Klucel (hydroxypropylcellulose) (HPC)
[2] = dose: 200.0 mg/kg/injection, schedule: Q04DX003 (ip), vehicle: Klucel (hydroxypropylcellulose) (HPC)
[3] = dose: 400.0 mg/kg/injection, schedule: Q04DX003 (ip), vehicle: Klucel (hydroxypropylcellulose) (HPC)
[4] = dose: 100.0 mg/kg/injection, schedule: Q01DX009 (ip), vehicle: saline with Tween-80
[5] = dose: 50.0 mg/kg/injection, schedule: Q01DX009 (ip), vehicle: saline with Tween-80
[6] = dose: 25.0 mg/kg/injection, schedule: Q04DX003 (ip), vehicle: saline with Tween-80
[7] = dose: 50.0 mg/kg/injection, schedule: Q04DX003 (ip), vehicle: saline with Tween-80
[8] = dose: 100.0 mg/kg/injection, schedule: Q04DX003 (ip), vehicle: saline with Tween-80
[9] = dose: 100.0 mg/kg/injection, schedule: Q01DX001 (ip), vehicle: saline
[10] = dose: 200.0 mg/kg/injection, schedule: Q01DX001 (ip), vehicle: saline
[11] = dose: 400.0 mg/kg/injection, schedule: Q01DX001 (ip), vehicle: saline
[12] = dose: 100.0 mg/kg/injection, schedule: Q01DX001 (ip), vehicle: carboxymethylcellulose (CMC)
[13] = dose: 200.0 mg/kg/injection, schedule: Q01DX001 (ip), vehicle: carboxymethylcellulose (CMC)
[14] = dose: 400.0 mg/kg/injection, schedule: Q01DX001 (ip), vehicle: carboxymethylcellulose (CMC)
[15] = dose: 25.0 mg/kg/injection, schedule: Q01DX009 (ip), vehicle: saline with Tween-80
[16] = dose: 5.0 mg/kg/injection, schedule: Q01DX001 (ip), vehicle: saline
[17] = dose: 10.0 mg/kg/injection, schedule: Q01DX001 (ip), vehicle: saline
[18] = dose: 20.0 mg/kg/injection, schedule: Q01DX001 (ip), vehicle: saline
[19] = dose: 40.0 mg/kg/injection, schedule: Q01DX001 (ip), vehicle: saline
[20] = dose: 200.0 mg/kg/injection, schedule: Q01DX009 (ip), vehicle: saline with Tween-80
[21] = dose: 100.0 mg/kg/injection, schedule: Q04DX002 (ip), vehicle: Klucel (hydroxypropylcellulose) (HPC)
[22] = dose: 200.0 mg/kg/injection, schedule: Q04DX002 (ip), vehicle: Klucel (hydroxypropylcellulose) (HPC)
[23] = dose: 400.0 mg/kg/injection, schedule: Q04DX002 (ip), vehicle: Klucel (hydroxypropylcellulose) (HPC)

Measured: T/C

Nc1cc(Sc2ccc(Cl)cc2)nc(N)n1
inactive: dose: 100.0 mg/kg/injection, schedule: Q01DX001 (ip), vehicle: saline with Tween-80 100 % of control | dose: 200.0 mg/kg/injection, schedule: Q01DX001 (ip), vehicle: saline with Tween-80 100 % of control | dose: 400.0 mg/kg/injection, schedule: Q01DX001 (ip), vehicle: saline with Tween-80 100 % of control

CCCCCCN1CC1
inactive: dose: 15.0 mg/kg/injection, schedule: Q01DX001 (ip), vehicle: saline 102 % of control | dose: 30.0 mg/kg/injection, schedule: Q01DX001 (ip), vehicle: saline 98 % of control

CCCCCCCCCCCOc1ccc(C=Nc2ccc(C)cc2)cc1
inactive: [1] 101 % of control | [2] 98 % of control | [3] 98 % of control

O=C(Cn1cnc2c(=S)nc[nH]c21)Oc1ccc([N+](=O)[O-])cc1
inactive: [4] 98 % of control | [1] 96 % of control | [2] 105 % of control | [3] 94 % of control

CC(C)(CCl)COS(=O)(=O)c1ccc(Br)cc1
inactive: [5] 90 % of control | [4] 90 % of control

Cc1cc(N)c(C)c(C)c1O
inactive: dose: 12.5 mg/kg/injection, schedule: Q04DX003 (ip), vehicle: saline with Tween-80 94 % of control | [6] 94 % of control | [7] 94 % of control | [8] 101 % of control

Cc1cc(N(CCCl)CCCl)ccc1C1N(Cc2ccccc2N(C)C)CCCN1Cc1ccccc1N(C)C
inactive: dose: 4.0 mg/kg/injection, schedule: Q12HX018 (ip), vehicle: other 101 % of control | dose: 6.0 mg/kg/injection, schedule: Q12HX018 (ip), vehicle: other 98 % of control | dose: 8.0 mg/kg/injection, schedule: Q12HX018 (ip), vehicle: Klucel (hydroxypropylcellulose) (HPC) 102 % of control | dose: 8.0 mg/kg/injection, schedule: Q12HX018 (ip), vehicle: other 109 % of control | dose: 16.0 mg/kg/injection, schedule: Q12HX018 (ip), vehicle: Klucel (hydroxypropylcellulose) (HPC) 107 % of control | dose: 32.0 mg/kg/injection, schedule: Q12HX018 (ip), vehicle: Klucel (hydroxypropylcellulose) (HPC) 105 % of control

CCOc1ccn(C2OC(COC(C)=O)C(OC(C)=O)C(OC(C)=O)C2Nc2ccc([N+](=O)[O-])cc2[N+](=O)[O-])c(=O)n1 (centres undefined)
inactive: [9] 103 % of control | [10] 100 % of control | [11] 97 % of control

Fc1cc(N(CCCl)CCCl)ccc1C=NCCCN=Cc1ccc(N(CCCl)CCCl)cc1F
inactive: [12] 95 % of control | [13] 95 % of control | [14] 111 % of control

Cc1ccc(OCc2c(COc3ccc(Cl)cc3)sc3ccc(Cl)cc23)cc1
inactive: dose: 12.5 mg/kg/injection, schedule: Q01DX009 (ip), vehicle: saline with Tween-80 97 % of control | [15] 95 % of control | [6] 87 % of control | [5] 101 % of control | [7] 87 % of control

Cc1c(C(=O)NN)sc2ccccc12
inactive: [16] 100 % of control | [17] 97 % of control | [18] 100 % of control | [19] 97 % of control | dose: 80.0 mg/kg/injection, schedule: Q01DX001 (ip), vehicle: saline 94 % of control

CCCCCC(=O)Oc1ccccc1C(=O)O
inactive: dose: 50.0 mg/kg/injection, schedule: Q01DX001 (ip), vehicle: carboxymethylcellulose (CMC) 100 % of control | [12] 100 % of control | [13] 97 % of control | [14] 92 % of control

CCOC(=O)/C(=C\C(C(=O)OCC)C(=O)OCC)CC
inactive: [9] 106 % of control | [10] 103 % of control | [11] 95 % of control

CCOC(=O)OC1CC/C(=N\NC(N)=S)C1 (centres undefined)
inactive: dose: 15.0 mg/kg/injection, schedule: Q01DX Z (ip), vehicle: methylcellulose (MC) 104 % of control | dose: 30.0 mg/kg/injection, schedule: Q01DX Z (ip), vehicle: methylcellulose (MC) 101 % of control | dose: 60.0 mg/kg/injection, schedule: Q01DX Z (ip), vehicle: methylcellulose (MC) 108 % of control | dose: 120.0 mg/kg/injection, schedule: Q01DX Z (ip), vehicle: methylcellulose (MC) 98 % of control

COc1ccc2c(c1)CCC1(C)CC(C)C(=O)C=C21 (centres undefined)
inactive: [1] 92 % of control | [2] 91 % of control | [3] 92 % of control

O=c1c(O)c(-c2ccccc2)oc2ccccc12
inactive: [12] 90 % of control | [13] 97 % of control | [14] 97 % of control

CC(C)N=C(NC(C)C)c1ccc(NC(=O)c2ccc(C(=O)Nc3ccc(C(=NC(C)C)NC(C)C)cc3)cc2)cc1
inactive: dose: 15.5 mg/kg/injection, schedule: Q01DX Z (ip), vehicle: methylcellulose (MC) 103 % of control

O=c1oc(/C=C/c2ccccc2)nc2cc(Cl)ccc12
inactive: [4] 103 % of control | [20] 101 % of control | dose: 400.0 mg/kg/injection, schedule: Q01DX009 (ip), vehicle: saline with Tween-80 96 % of control

CC(=O)Oc1ccc2ccnc(/C=N\NC(N)=S)c2c1
inactive: [21] 106 % of control | [22] 98 % of control | [23] 117 % of control

c1ccc(C2SCCSCCS2)cc1
inactive: [15] 92 % of control | [5] 86 % of control | [4] 86 % of control | [1] 102 % of control | [2] 100 % of control | [3] 92 % of control

CCCc1cc(C)cc(N=Cc2ccccc2)c1O
inactive: [8] 101 % of control | dose: 200.0 mg/kg/injection, schedule: Q04DX003 (ip), vehicle: saline with Tween-80 97 % of control | dose: 400.0 mg/kg/injection, schedule: Q04DX003 (ip), vehicle: saline with Tween-80 98 % of control

CCOc1ccc(Cl)cc1
inactive: dose: 75.0 mg/kg/injection, schedule: Q01DX009 (ip), vehicle: Klucel (hydroxypropylcellulose) (HPC) 117 % of control | [4] 108 % of control | [21] 100 % of control | dose: 150.0 mg/kg/injection, schedule: Q01DX009 (ip), vehicle: Klucel (hydroxypropylcellulose) (HPC) 93 % of control | [20] 106 % of control | [22] 103 % of control | dose: 300.0 mg/kg/injection, schedule: Q01DX009 (ip), vehicle: Klucel (hydroxypropylcellulose) (HPC) 96 % of control | [23] 92 % of control

CC(C)(SCc1ccc([N+](=O)[O-])cc1)C(N)C(=O)O (centres undefined)
inactive: [1] 101 % of control | [2] 100 % of control | [3] 91 % of control

O=C(c1ccccc1)N1CCC(CCO)C(O)C1Cc1c[nH]c2ccccc12 (centres undefined)
inactive: dose: 100.0 mg/kg/injection, schedule: Q01DX009 (ip), vehicle: saline 96 % of control | dose: 100.0 mg/kg/injection, schedule: Q04DX003 (ip), vehicle: saline 100 % of control | dose: 200.0 mg/kg/injection, schedule: Q01DX009 (ip), vehicle: saline 93 % of control | dose: 200.0 mg/kg/injection, schedule: Q04DX003 (ip), vehicle: saline 94 % of control | dose: 400.0 mg/kg/injection, schedule: Q01DX009 (ip), vehicle: saline 98 % of control | dose: 400.0 mg/kg/injection, schedule: Q04DX003 (ip), vehicle: saline 92 % of control

CCOC(=O)NC(=S)[S][Sb]([S]C(=S)NC(=O)OCC)[S]C(=S)Nc1ccc(S(=O)(=O)Nc2ccc(N=Nc3ccccc3)cc2)cc1
inactive: dose: 100.0 mg/kg/injection, schedule: Q01DX001 (ip), vehicle: steriod suspending solution 103 % of control | dose: 400.0 mg/kg/injection, schedule: Q01DX001 (ip), vehicle: steriod suspending solution 106 % of control

COc1ccccc1OS(=O)(=O)c1ccc(C)cc1
inactive: dose: 50.0 mg/kg/injection, schedule: Q04DX003 (ip), vehicle: Klucel (hydroxypropylcellulose) (HPC) 105 % of control | [1] 104 % of control | [2] 105 % of control

CN1CCN(C2CCCc3ccccc3C2O)CC1 (centres undefined)
inactive: [16] 109 % of control | [17] 105 % of control | [18] 103 % of control | [19] 103 % of control
